Like-named read-outs stand apart in the source and are kept apart here.
Experiments:
[1] = system: HEK293 cells, normal (non-induced); assay: Permeability of chelates to HEK293 cells, fluorescence of fractions; format: cell-based, human; settings: HEK293 Normal; 1 mM chelate, 2 hours
Description: (§1) The human kidney transformed HEK293 cells (obtained from the ATCC) were grown in Eagle's Minimum Essential Medium (EMEM) supplemented with 10% (v/v) heat-inactivated fetal bovine serum, sodium pyruvate, nonessential amino acids and antibiotics in a humidified 5% CO2 atmosphere at 37° C. Medium and supplements were purchased from Gibco bRL (Grand Island, N.Y.). Etoposide was obtained from Sigma (St. Louis, Mo.) and prepared as 20 mM solution in dimethyl sulfoxide (DMSO). For treatments, etoposide was applied to the HEK293 cultures at 1:1000 dilution (final concentration of 20 μM) after cell became 75% confluent. As a control, cells were fed with medium containing 0.1% DMSO in the absence of etoposide. After treatment with etoposide, cells were incubated in a humidified 5% CO2 at 37° C. for 24 hours. HEK293 cells were collected by removing treatment medium and washed 2 times with 10 mM HEPES buffer. Final cell pellets were resuspended in a small amount of HEPES and stored at 4° C. for further study.
(§2) Cells were grown to confluence in T-150 flasks (about 2×10^6 cells). […] After treatment, the chelate or analogue supernatant was discarded and the cells were rinsed three times at room temperature with 10 mM HEPES. Cells were then removed from the flask by manual scraping. Cells were transferred to a 50-mL conical tube and centrifuged (400×g) for 5 minutes and the test material removed. Remaining cells were rinsed twice with cold 10 mM HEPES. Cells were used in cell binding assays.

C33-A cells [2] = settings: for EuQCTME Cell Binding (fluorescence per well): 1 mM
T84 cell line = assay: Chelate permeability: fluorescence of cytoplasm and membrane fractions; format: cell-based, human; settings: 1 mM chelate, 2 h, Table 4
[3] = system: etoposide-induced (apoptotic) HEK293 cells; assay: Permeability of chelates to apoptotic cells, fluorescence of fractions; format: cell-based, human
Description: as §1, §2

Caco-2 cells [4] = settings: 1 mM
HSPC194 protein = HSPC194 protein (Homo sapiens, UniProt Q9P0S9); assay: Elution of HSPC194 from affinity support column by compounds; settings: symbols not defined
Chain of HSPC194 protein (Q9P0S9 whole entry): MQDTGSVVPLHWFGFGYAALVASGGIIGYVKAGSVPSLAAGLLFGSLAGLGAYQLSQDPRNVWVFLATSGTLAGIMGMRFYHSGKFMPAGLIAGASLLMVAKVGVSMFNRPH
Description: Purified HSPC194 protein was captured on an affinity support column. The unbound contaminants, which have no affinity for the ligand, are washed through the column, leaving the HSPC194 protein bound to the matrix.

[5] = system: normal cheek pouch tissue; settings: 2 mM solution topical, 10 minutes, readings Adjusted Volume CNT*mm2
Caco-2 cells [6] = settings: 1 mM EuQCTME, up to 240 min
Description: (§3) Cells were counted and plated in a 20×100 mm cell culture dish at a density of about 2×10^6 cells.
(§4) After incubation cells were collected by trypsinization and gently centrifuged (about […]) for 10 minutes. The cell supematant was discarded, and the resulting cell pellet was washed in cold PBS (phosphate buffered saline). The cell pellet was centrifuged again (about 2000 rpm) for 10 minutes. The PBS supernatant was discarded and the cold PBS wash was repeated and centrifuged as above. After discarding the PBS supernatant, the resulting cell pellet was used for NE-PER extraction (Pierce, Rockford, Ill.) according to the manufacturer's instructions.
(§5) The resulting nuclear and cytoplasmic fractions from each time point were then placed into the wells of a 96-well white plate. Due to the volume of lysate available for measurement, the fractions were diluted 1:4 in HEPES binding buffer for a total volume of 100 liL. […] The following settings were optimized for measurement: excitation at 320 nm (band width: 35 nm), emission at 595 nm (bandwidth: 35 nm), gain 110, lag time 1 μs, integration time 2000 μs, # of flashes: 1.
(§6) Because lysate volume was in limited quantity and protein concentration was relatively low, absorbances for protein measurements were read using the formula of Kalckar (1.45 OD280-0.74OD260=mg protein/mL). Each time point measurement above (in RFU) was normalized to its corresponding protein content and recalculated as RFU/μg protein.

C33-A cells [7] = settings: 1 mM EuQCTME, up to 240 min
Description: as §3, §4, §5, §6

HLAC cells = settings: 1 mM EuQCTME, up to 240 min
Description: as §3, §4, §5, §6

NCM460 cells [8] = settings: 1 mM EuQCTME, up to 240 min
Description: as §3, §4, §5, §6

DU-145 cells = settings: 1 mM EuQCTME, up to 240 min
Description: as §3, §4, §5, §6

SK-MES cells = settings: 1 mM EuQCTME, up to 240 min
Description: as §3, §4, §5, §6

C-33A cervical cells = settings: read-out: Chelate Concentration Producing 50% Inhibition of Cancer Cell Growth, MTS, 96 hour continuous exposure
Description: (§7) To assess whether or not chelate treatment of cancer cells could produce a net modulation in cell growth, the overall growth inhibitory effect of chelates on various cancer cell lines was tested. The concentration of chelate necessary to produce 50% growth inhibition was measured, as determined by detection of the formazan product of cellular […] of 3-(4,5-dimethylthiazol-2-yl)-5-(3-carboxymethoxyphenyl)-2-(4-sulfophenyl)-2H-tetrazolium, inner salt (MTS).

[9] = system: DU-145 prostate adenocarcinoma cells
Description: as §7

[10] = system: HT-29 colon adenocarcinoma cells; settings: read-out: Chelate Concentration Producing 50% Inhibition of Cancer Cell Growth, MTS, 96 hour continuous exposure
Description: as §7

[11] = system: PZ-HPV-7 normal cell line; assay: Chelate permeability: fluorescence of cytoplasm and membrane fractions; format: cell-based
NCM460 cells [12] = settings: 1 mM, 1 h
Description: Before images were captured, an aliquot of the HEPES binding buffer was mounted on a slide and observed for any background fluorescence.

[13] = PZ-HVP-7, 1 mM chelate, 2 h, Table 4

CCOP(=O)([O-])CN1CCN(Cc2ccc3cc(C)ccc3n2)CCN(CP(=O)([O-])OCC)CCN(CP(=O)([O-])OCC)CC1.[Eu+3] [Eu-QCTME, Eu(III) N-(6-methyl-2-quinolylmethyl)-N′,N″,N′″-tris(methylenephosphonic acid ethyl ester)-1,4,7,10-tetraazacyclododecane]
Fluorescence/mg Membrane [1]: 1799
EuQCTME Cell Binding (fluorescence per well) (C33-A cells [2]; 2 min): 2,967
EuQCTME Cell Binding (fluorescence per well) (C33-A cells [2]; 5 min): 22,763
EuQCTME Cell Binding (fluorescence per well) (C33-A cells [2]; 15 min): 5,075
EuQCTME Cell Binding (fluorescence per well) (C33-A cells [2]; 30 min): 2,923
EuQCTME Cell Binding (fluorescence per well) (C33-A cells [2]; 45 min): 7,030
EuQCTME Cell Binding (fluorescence per well) (C33-A cells [2]; 60 min): 583
EuQCTME Cell Binding (fluorescence per well) (C33-A cells [2]; 120 min): 1,275
EuQCTME Cell Binding (fluorescence per well) (C33-A cells [2]; 180 min): 2,377
EuQCTME Cell Binding (fluorescence per well) (C33-A cells [2]; 240 min): 1,322
Totals: Normalized total area under each curve (AUC) (C33-A cells [2]; over 240 min): 9
Fluorescence/mg Cytoplasm (T84 cell line): 4548
Fluorescence/mg Membrane (T84 cell line): 2307
permeability to apoptotic induced HEK293 cells [3]: permeable
Fluorescence/mg Membrane ([3]; HEK293 Apoptotic (etoposide 20 μM, 24 hours), 1 mM chelate, 2 hours): 1697
EuQCTME Cell Binding (fluorescence per well) (Caco-2 cells [4]; 2 min): 4,708
EuQCTME Cell Binding (fluorescence per well) (Caco-2 cells [4]; 5 min): 3,391
EuQCTME Cell Binding (fluorescence per well) (Caco-2 cells [4]; 15 min): 6,806
EuQCTME Cell Binding (fluorescence per well) (Caco-2 cells [4]; 30 min): 11,168
EuQCTME Cell Binding (fluorescence per well) (Caco-2 cells [4]; 45 min): 10,872
EuQCTME Cell Binding (fluorescence per well) (Caco-2 cells [4]; 60 min): 21,176
EuQCTME Cell Binding (fluorescence per well) (Caco-2 cells [4]; 120 min): 29,389
EuQCTME Cell Binding (fluorescence per well) (Caco-2 cells [4]; 180 min): 31,510
EuQCTME Cell Binding (fluorescence per well) (Caco-2 cells [4]; 240 min): 4,575
Elution of HSPC194 10 μM (HSPC194 protein; compound at 10 μM): 0
Elution of HSPC194 50 μM (HSPC194 protein; compound at 50 μM): 0
Fluorescence/mg Cytoplasm ([5]; Normal 1): 1344
Fluorescence/mg Membrane ([5]; Normal 1): 1348
Fluorescence/mg Cytoplasm ([5]; Normal 2): 1369
Fluorescence/mg Membrane ([5]; Normal 2): 1374
nuclear and cytoplasmic fluorescence (Caco-2 cells [6]): approximately 40 pg EuQCTME per μg protein
nuclear signal (C33-A cells [7]): very low
nuclear signal (HLAC cells): rapidly declined after an apparent initial burst
cytoplasm-associated fluorescence (NCM460 cells [8]): < 10 pg EuQCTME per μg protein
nuclear signal (NCM460 cells [8]): high nuclear signal
nuclear and cytoplasmic fluorescence (DU-145 cells): approximately 40 pg EuQCTME per μg protein
nuclear and cytoplasmic fluorescence (SK-MES cells): approximately 40 pg EuQCTME per μg protein
IC50 (C-33A cervical cells): 41 µM
inhibitory activity, time course MTS ([9]; 500 μM, 24 hours): showed inhibitory activity
IC50 ([9]; read-out: Chelate Concentration Producing 50% Inhibition of Cancer Cell Growth, MTS, 96 hour continuous exposure): 54.4 µM
IC50 [10]: 15.8 µM
detectability in normal cells ([11]; PZ-HPV-7): significantly less detectable
Fluorescence/mg Cytoplasm [11, 13]: 2247
Fluorescence/mg Membrane [11, 13]: 2293
uptake by confocal microscopy (NCM460 cells [12]): only a minimal uptake

From US20060210479A1 (Dow Global Technologies Inc., priority 2004, published 2006)
